ChEMBL document CHEMBL5653631, “A Potent and Selective ULK1 Inhibitor Suppresses Autophagy and Sensitizes Cancer Cells to Nutrient Stress” (iScience, 2018)

What was measured:
[1] = target: Proto-oncogene tyrosine-protein kinase ROS (Homo sapiens) (UniProt P08922); test: Inhibition of human recombinant ROS at 40 nM in presence of ATP by radiometric assay relative to control
[2] = target: Protein kinase C beta type (Homo sapiens) (UniProt P05771); test: Inhibition of human recombinant PKCb at 500 nM related to control ULK1
Protein kinase C beta type (Homo sapiens), sequence (P05771 2-671 limits assumed): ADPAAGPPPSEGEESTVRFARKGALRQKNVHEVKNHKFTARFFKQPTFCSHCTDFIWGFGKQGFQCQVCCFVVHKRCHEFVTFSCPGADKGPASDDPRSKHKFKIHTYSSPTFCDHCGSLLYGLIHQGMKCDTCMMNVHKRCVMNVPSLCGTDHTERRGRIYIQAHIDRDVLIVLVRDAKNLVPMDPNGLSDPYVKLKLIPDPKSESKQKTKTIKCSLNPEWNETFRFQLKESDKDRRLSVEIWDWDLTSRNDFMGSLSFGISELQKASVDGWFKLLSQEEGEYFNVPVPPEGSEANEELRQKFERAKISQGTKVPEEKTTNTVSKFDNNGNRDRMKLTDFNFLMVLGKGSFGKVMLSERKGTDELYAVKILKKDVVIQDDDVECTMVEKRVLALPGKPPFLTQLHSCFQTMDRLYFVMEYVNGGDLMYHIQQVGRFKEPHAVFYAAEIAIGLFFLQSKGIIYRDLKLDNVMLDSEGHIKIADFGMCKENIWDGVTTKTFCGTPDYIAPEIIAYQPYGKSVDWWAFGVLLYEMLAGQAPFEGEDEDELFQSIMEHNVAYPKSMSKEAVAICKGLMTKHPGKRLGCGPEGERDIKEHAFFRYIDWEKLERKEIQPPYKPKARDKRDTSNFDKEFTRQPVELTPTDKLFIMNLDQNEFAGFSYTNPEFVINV

[3] = target: Platelet-derived growth factor receptor beta (Homo sapiens) (UniProt P09619); test: Inhibition of human recombinant PDGFRb at 500 nM in presence of ATP by radiometric assay relative to control
Platelet-derived growth factor receptor beta (Homo sapiens), sequence (P09619 whole entry): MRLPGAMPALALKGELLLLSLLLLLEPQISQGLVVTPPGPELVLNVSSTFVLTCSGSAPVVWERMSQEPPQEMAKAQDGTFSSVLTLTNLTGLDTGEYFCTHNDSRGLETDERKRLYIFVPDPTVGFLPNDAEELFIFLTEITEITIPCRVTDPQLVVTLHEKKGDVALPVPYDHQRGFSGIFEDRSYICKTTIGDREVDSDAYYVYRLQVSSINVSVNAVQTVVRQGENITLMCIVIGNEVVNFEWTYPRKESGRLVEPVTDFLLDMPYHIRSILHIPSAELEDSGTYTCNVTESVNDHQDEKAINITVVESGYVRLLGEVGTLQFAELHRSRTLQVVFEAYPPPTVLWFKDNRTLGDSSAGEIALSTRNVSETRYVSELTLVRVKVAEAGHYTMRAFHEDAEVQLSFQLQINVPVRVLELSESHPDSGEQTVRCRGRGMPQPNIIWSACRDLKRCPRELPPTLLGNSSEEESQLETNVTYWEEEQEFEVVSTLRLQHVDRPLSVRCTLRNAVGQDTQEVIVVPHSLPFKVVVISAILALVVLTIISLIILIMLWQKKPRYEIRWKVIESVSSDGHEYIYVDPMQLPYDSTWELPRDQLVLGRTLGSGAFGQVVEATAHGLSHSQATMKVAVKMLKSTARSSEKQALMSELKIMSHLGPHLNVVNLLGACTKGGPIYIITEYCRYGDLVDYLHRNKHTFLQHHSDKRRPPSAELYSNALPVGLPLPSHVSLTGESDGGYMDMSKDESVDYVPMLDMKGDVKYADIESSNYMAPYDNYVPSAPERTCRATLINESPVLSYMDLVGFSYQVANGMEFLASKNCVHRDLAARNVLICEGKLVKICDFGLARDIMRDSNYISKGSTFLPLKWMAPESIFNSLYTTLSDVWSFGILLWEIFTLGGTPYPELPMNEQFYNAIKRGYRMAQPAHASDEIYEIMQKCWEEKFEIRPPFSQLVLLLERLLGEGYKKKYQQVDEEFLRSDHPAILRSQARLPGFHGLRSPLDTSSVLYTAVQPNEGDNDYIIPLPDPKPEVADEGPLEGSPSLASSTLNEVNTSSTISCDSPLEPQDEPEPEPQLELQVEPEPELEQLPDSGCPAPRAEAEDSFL

[4] = target: Dual specificity protein kinase CLK2 (Homo sapiens) (UniProt P49760); test: Inhibition of human recombinant CLK2 at 500 nM related to control ULK1
Dual specificity protein kinase CLK2 (Homo sapiens), sequence (P49760 whole entry, looked up): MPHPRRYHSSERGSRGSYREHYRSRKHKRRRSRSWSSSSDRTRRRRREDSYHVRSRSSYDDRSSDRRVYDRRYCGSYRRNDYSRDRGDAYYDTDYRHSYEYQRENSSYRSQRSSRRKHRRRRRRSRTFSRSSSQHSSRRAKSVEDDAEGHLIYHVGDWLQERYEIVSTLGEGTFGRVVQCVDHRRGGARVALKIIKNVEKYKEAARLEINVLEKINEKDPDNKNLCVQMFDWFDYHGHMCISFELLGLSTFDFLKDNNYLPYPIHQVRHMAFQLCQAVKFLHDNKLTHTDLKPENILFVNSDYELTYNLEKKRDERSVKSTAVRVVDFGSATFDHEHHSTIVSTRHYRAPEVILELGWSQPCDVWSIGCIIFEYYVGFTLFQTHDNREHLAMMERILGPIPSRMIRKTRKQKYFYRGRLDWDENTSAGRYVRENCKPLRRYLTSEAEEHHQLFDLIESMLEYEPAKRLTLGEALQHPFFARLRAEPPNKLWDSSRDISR

[5] = target: Receptor tyrosine-protein kinase erbB-4 (Homo sapiens) (UniProt Q15303); test: Inhibition of human recombinant ErbB4 at 500 nM in presence of ATP by radiometric assay relative to control
Receptor tyrosine-protein kinase erbB-4 (Homo sapiens), sequence (Q15303 whole entry): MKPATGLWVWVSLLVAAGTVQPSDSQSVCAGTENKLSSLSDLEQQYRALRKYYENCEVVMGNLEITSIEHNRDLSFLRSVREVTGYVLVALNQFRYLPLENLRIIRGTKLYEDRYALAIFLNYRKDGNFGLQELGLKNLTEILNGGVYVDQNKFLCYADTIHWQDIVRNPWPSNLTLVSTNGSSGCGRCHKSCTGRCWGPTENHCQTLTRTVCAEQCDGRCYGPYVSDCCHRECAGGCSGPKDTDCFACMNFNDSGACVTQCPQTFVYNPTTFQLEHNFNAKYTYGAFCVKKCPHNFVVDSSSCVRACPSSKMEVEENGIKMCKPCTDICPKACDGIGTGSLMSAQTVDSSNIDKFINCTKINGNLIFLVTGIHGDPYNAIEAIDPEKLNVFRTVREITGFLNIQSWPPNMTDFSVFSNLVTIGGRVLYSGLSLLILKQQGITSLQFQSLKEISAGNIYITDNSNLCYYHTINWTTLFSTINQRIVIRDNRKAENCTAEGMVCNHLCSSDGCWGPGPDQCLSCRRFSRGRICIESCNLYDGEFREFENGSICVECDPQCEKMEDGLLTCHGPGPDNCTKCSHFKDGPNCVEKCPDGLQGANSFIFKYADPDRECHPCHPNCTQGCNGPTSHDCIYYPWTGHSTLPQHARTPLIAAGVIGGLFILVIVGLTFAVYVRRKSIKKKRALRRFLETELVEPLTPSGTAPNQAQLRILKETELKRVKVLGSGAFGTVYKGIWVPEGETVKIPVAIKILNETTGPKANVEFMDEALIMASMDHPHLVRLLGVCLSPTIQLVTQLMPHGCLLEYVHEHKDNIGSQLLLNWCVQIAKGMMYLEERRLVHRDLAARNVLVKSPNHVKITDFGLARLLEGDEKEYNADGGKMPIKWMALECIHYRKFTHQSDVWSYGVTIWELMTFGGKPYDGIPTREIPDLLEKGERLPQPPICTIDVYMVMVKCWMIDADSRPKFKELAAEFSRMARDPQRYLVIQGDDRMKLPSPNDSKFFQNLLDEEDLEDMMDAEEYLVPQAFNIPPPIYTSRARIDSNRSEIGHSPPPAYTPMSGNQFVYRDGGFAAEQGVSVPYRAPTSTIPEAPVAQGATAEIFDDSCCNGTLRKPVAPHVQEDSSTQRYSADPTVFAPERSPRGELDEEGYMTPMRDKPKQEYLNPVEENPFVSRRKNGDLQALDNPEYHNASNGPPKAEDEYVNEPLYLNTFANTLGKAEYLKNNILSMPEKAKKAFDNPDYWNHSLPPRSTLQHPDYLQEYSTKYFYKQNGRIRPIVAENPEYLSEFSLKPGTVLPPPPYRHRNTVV

[6] = target: T1, Bone morphogenetic protein receptor type-2 (Homo sapiens) (UniProt Q13873); test: Inhibition of human recombinant BMPR2 at 15 nM related to control ULK1
T1 sequence (whole entry): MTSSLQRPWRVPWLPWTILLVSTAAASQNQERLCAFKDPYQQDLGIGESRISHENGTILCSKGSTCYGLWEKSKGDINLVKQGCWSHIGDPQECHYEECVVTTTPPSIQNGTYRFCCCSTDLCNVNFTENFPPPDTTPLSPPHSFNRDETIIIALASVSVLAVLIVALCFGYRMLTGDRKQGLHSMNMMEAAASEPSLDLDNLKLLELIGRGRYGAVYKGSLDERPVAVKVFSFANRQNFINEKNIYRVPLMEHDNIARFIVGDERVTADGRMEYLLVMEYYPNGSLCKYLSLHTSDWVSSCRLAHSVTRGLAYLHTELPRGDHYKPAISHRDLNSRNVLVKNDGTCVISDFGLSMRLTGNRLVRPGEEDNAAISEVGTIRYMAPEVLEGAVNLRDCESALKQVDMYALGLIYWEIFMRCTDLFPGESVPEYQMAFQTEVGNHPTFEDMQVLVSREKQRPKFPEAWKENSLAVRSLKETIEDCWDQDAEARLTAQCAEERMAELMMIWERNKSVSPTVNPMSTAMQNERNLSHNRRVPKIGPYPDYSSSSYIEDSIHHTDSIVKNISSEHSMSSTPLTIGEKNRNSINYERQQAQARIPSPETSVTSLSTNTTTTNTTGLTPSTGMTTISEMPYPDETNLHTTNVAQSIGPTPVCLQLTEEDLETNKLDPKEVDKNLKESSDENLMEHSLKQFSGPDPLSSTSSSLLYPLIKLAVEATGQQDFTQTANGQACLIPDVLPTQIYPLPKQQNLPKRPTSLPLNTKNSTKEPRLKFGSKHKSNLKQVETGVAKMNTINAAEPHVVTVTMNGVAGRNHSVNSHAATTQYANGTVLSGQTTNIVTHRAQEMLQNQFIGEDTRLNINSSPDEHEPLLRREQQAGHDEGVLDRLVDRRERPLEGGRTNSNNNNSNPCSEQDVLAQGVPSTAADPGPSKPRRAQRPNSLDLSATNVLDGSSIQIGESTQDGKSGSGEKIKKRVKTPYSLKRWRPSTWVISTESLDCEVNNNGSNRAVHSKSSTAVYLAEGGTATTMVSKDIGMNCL

[7] = target: Casein kinase I isoform gamma-2 (Homo sapiens) (UniProt P78368); test: Inhibition of human recombinant CK1g2 at 15 nM related to control ULK1
Casein kinase I isoform gamma-2 (Homo sapiens), sequence (P78368 whole entry, looked up, the tested form may be a part, canonical isoform): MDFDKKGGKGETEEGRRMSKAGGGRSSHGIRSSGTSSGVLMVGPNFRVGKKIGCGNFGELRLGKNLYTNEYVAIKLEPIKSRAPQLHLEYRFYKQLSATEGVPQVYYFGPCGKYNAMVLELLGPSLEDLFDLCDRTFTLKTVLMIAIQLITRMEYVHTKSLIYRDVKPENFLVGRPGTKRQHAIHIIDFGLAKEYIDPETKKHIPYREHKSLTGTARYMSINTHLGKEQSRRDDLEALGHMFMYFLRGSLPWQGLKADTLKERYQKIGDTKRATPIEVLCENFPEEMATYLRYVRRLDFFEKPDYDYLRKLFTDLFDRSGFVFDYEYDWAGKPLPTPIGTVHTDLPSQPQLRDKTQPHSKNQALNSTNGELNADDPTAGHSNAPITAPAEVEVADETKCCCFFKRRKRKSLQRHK

[8] = target: Epithelial discoidin domain-containing receptor 1 (Homo sapiens) (UniProt Q08345); test: Inhibition of human recombinant DDR1 at 15 nM related to control ULK1
Epithelial discoidin domain-containing receptor 1 (Homo sapiens), sequence (Q08345 whole entry, the tested form may be a part): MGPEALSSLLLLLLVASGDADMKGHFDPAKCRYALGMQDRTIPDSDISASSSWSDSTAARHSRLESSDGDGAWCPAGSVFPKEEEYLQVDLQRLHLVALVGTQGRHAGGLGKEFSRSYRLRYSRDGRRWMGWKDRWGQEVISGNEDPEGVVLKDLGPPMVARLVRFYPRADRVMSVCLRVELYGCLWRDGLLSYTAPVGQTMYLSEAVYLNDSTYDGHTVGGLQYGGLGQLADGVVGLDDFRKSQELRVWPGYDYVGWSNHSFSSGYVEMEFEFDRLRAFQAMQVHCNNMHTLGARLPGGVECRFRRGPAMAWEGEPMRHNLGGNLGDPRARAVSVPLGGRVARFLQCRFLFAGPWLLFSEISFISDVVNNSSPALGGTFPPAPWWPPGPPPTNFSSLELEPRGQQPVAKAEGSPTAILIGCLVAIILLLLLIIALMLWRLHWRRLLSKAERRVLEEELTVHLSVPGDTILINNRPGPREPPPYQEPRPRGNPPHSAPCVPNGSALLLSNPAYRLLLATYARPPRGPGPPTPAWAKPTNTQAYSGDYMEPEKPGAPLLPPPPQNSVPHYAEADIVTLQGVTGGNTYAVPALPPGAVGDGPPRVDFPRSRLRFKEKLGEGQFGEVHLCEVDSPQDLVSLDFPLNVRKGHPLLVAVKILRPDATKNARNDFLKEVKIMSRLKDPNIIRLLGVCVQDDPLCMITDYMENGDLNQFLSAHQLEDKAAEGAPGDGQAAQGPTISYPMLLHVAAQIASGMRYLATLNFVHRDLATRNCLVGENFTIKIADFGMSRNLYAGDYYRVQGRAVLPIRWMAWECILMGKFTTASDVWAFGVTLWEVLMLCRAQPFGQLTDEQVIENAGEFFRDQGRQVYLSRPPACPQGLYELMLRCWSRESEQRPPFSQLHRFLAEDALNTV

[9] = target: T2, Serine/threonine-protein kinase ULK1 (Homo sapiens) (UniProt O75385); test: Inhibition of human recombinant ULK1 at 15 nM in presence of ATP by radiometric assay relative to control
T2 sequence (whole entry): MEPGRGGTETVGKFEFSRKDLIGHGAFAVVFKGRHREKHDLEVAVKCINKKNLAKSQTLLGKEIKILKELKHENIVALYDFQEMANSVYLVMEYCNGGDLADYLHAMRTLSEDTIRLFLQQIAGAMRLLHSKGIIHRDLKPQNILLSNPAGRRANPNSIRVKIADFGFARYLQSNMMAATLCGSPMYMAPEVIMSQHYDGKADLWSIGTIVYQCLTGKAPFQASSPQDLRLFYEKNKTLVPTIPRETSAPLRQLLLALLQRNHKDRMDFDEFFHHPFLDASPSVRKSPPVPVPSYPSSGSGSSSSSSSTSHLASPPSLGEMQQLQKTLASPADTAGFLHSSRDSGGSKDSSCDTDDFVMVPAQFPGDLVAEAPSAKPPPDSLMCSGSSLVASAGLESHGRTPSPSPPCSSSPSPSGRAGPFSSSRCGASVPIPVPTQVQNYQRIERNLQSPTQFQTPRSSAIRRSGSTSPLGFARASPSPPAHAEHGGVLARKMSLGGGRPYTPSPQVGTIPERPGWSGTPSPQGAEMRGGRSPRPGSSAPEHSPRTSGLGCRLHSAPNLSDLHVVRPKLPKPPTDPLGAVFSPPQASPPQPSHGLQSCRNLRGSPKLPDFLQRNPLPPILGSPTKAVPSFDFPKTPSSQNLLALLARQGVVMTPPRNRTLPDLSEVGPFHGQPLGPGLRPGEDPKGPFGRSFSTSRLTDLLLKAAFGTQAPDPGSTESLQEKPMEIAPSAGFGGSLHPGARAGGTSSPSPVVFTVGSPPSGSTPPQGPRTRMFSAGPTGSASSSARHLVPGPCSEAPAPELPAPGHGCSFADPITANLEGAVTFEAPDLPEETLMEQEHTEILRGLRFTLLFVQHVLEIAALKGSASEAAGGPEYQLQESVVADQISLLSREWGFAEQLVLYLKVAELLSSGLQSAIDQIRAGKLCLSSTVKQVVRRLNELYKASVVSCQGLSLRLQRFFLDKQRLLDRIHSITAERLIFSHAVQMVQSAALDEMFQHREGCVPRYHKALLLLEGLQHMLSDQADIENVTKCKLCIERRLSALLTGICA

## O=C(N[C@@H](C1CC1)C(F)(F)F)c1cc(-c2cnn3cc(-c4ccc(F)cc4)cnc23)cs1
[1]
  inhibition: 0%

## CNC(=O)c1ccccc1Oc1nc(Nc2cc(OC)c(OC)c(OC)c2)ncc1Br
[2]
  fold change (FC): 0.09
[3]
  inhibition: 0%
[4]
  fold change (FC): 0.09
[5]
  inhibition: 0%

## CC(C)[C@H](NC(=O)c1cc(-c2cnn3cc(-c4ccc(OCCN5CCCCC5)cc4)cnc23)cs1)C(F)(F)F
[6]
  fold change (FC): 0.06
[7]
  fold change (FC): 0
[8]
  fold change (FC): 0.89
[9]
  inhibition: 88%
